These results are taken from patent publication US10800741B2 (ANCUREALL PHARMACEUTICAL (SHANGHAI) CO., LTD., priority 2017, dated 2020).

One test relates to MFM-223. As to the kind of experiment: In vitro growth inhibition of MFM-223 cells. Format: cell-based. Conditions: Homo sapiens, PI3KCA H1047R, FGFR1 amp, FGFR2 amp. How it is done: (§1) Adherent cells were digested with 0.25% trypsin-EDTA (Gibco). Suspension culture cells were collected by centrifugation (1700 rpm, 3 minutes). The supernatant was discarded and the cells were counted. According to each cell growth cycle, different concentrations of cells were prepared (5˜10×10^4 cells per ml), and inoculated to 96-well plates (Corning), with 100 μl per well, and incubated overnight at 37° C., 5% CO2. The next day, the test compound was added to the cultured cells (2 wells in parallel). The final concentration of the solvent was less than 1/1,000. The cells were further cultured for 3 to 5 days and assayed by MTT.
(§2) The MTT test reagent was a Dojindo CCK8 kit and the Microplate Reader was a THERMO […] FC instrument.
(§3) The adherent cells were taken out from the cell culture medium, and immediately added to a freshly prepared complete medium containing 10% CCK8 (5% FBS), 100 ul per hole. The suspended cells were directly added to a CCK8 reagent until reaching a final concentration of 10% and cultured for 1 to 4 hours. When a dark yellow color could be observed in the solvent control wells, the absorbance value at OD450 nm was measured and the cell growth rate was calculated according to the following formula: Cell Growth Rate (%)=100×(T−T0)/(C−T0)
(§4) T=optical density of drug-treated cell wells−optical density of blank control wells; T0=optical density of cell wells before drug treatment−optical density of blank control wells; C=optical density of solvent control wells−optical density of blank control wells. […] The experiments were repeated 1 to 3 times and a statistical analysis of data was conducted.
(§5) Mutations in the FGFR1-4 gene often occur in different types of cancer patients. In order to test the growth inhibition activity of the present compound against tumor cells expressing different FGFR variants, tumor cell lines expressing representative FGFR1-4 were selected for further determining the activity of compounds 25, 66, 38 and 95 of the present invention. BGJ398, a selective inhibitor of FGFR1-4, was used as the control compound. The specific test method is the same as test example 1.

A further test relates to KATO III (FGFR2 amp). As to the kind of experiment: In vitro growth inhibition of KATO III tumor cells (MTT/CCK8). Format: cell-based, Human. Conditions: Homo sapiens, KATO III; in vitro growth inhibition (or induction of apoptosis), cells cultured 3 to 5 days, MTT (CCK8); read-out: IC50 KATO III (FGFR2 amp).
A further test deals with SK-OV-3. Put plainly: In vitro growth inhibition of PI3KCA amplified/mutant tumor cells SK-OV-3. Format: cell-based. The following applies: Homo sapiens; SK-OV-3; PI3KCA H1047R; HER2 amp; read-out: IC50 growth inhibition. As for the experimental part: (§6) Suspension culture cells were collected by centrifugation (1700 rpm, 3 minutes). The supernatant was discarded and the cells were counted. According to each cell growth cycle, different concentrations of cells were prepared (5˜10×10^4 cells per ml), and inoculated to 96-well plates (Corning), with 100 μl per well, and incubated overnight at 37° C., 5% CO2. The next day, the test compound was added to the cultured cells (2 wells in parallel). The final concentration of the solvent was less than 1/1,000. The cells were further cultured for 3 to 5 days and assayed by MTT.
(§7) The adherent cells were taken out from the cell culture medium, and immediately added to a freshly prepared complete medium containing 10% CCK8 (5% FBS), 100 ul per hole. The suspended cells were directly added to a CCK8 reagent until reaching a final concentration of 10% and cultured for 1 to 4 hours.
as §4

The subject of the next test is NCI-H460. Put plainly: In vitro growth inhibition of PI3KCA amplified/mutant tumor cells NCI-H460. It counts as cell-based. The following applies: Homo sapiens; NCI-H460; PI3KCA E545K; KRAS Q61H; read-out: IC50 growth inhibition. As for the experimental part:
as §6, §7, §4

For a further test, the system named is Karpas 299 (NPM-ALK). As to the kind of experiment: In vitro growth inhibition of Karpas 299 tumor cells (MTT/CCK8). Format: cell-based, Human. Conditions: Homo sapiens, KARPAS-299; in vitro growth inhibition (or induction of apoptosis), cells cultured 3 to 5 days, MTT (CCK8); read-out: IC50 Karpas 299 (NPM-ALK).
Another test has as its system HCC1954. As to the kind of experiment: In vitro growth inhibition of PI3KCA amplified/mutant tumor cells HCC1954. Format: cell-based. Conditions: Homo sapiens; HCC1954; PI3KCA H1047R; HER2 amp; read-out: IC50 growth inhibition. How it is done:
as §6, §7, §4

In the next test the test system is Kasumi-1 (KIT N822K). As to the kind of experiment: In vitro growth inhibition of Kasumi-1 tumor cells (MTT/CCK8). Format: cell-based, Human. The following applies: Homo sapiens, Kasumi 1; in vitro growth inhibition (or induction of apoptosis), cells cultured 3 to 5 days, MTT (CCK8); read-out: IC50 Kasumi-1 (KIT N822K).
The subject of the next test is SW48. As to the kind of experiment: In vitro growth inhibition of PI3KCA amplified/mutant tumor cells SW48. It counts as cell-based. The following applies: Homo sapiens; SW48; PI3KCA G914R; EGFR G719S; read-out: IC50 growth inhibition. How it is done: as §6, §7, §4
The next test relates to RT112/84. Put plainly: In vitro growth inhibition of RT112/84 cells. It counts as cell-based. The following applies: Homo sapiens, FGFR3-TACC3. How it is done: as §1, §2, §3, §4, §5
A further test deals with JHH-7. Put plainly: In vitro growth inhibition of JHH-7 cells. Format: cell-based. The following applies: Homo sapiens, JHH7, FGFR3+++, FGFR4 +++. How it is done:
as §1, §2, §3, §4, §5

In a further test the test system is Huh-7. As to the kind of experiment: In vitro growth inhibition of Huh-7 cells. Format: cell-based. Conditions: Homo sapiens, FGFR3+++, FGFR4 +++. How it is done: as §1, §2, §3, §4, §5
In a further test the test system is HGC-27. Put plainly: In vitro growth inhibition of PI3KCA amplified/mutant tumor cells HGC-27. The following applies: Homo sapiens; HGC-27; PI3KCA H1047R; FGFR1OP2+++; read-out: IC50 growth inhibition. It counts as cell-based. How it is done:
as §6, §7, §4

A further test concerns DMS114. As to the kind of experiment: In vitro growth inhibition of DMS114 cells. It counts as cell-based. Conditions: Homo sapiens, DMS-114, FGFR1 amp. As for the experimental part: as §1, §2, §3, §4, §5

The term IC50 denotes the concentration at which inhibition is half-maximal. Take `CN1CCN(CCCOc2cc3nccc(Oc4ccc(NC(=O)Nc5cc(C(C)(C)C)n[nH]5)c(Cl)c4Cl)c3cc2C(N)=O)CC1` [Compound 95]: the IC50 with MFM-223 was determined as 32.6 nM; in the test with KATO III (FGFR2 amp) it was 0.91 nM; in the test with SK-OV-3, 26.4 nM; in the test on NCI-H460, 34.5 nM; in the test with Karpas 299 (NPM-ALK) it was 7.5 nM; with HCC1954 it was 9.94 nM. Besides, the IC50 was 1.34 nM with Kasumi-1 (KIT N822K); 41.9 nM in the test with SW48; 9.76 nM in the test with RT112/84; 17.6 nM in the test on JHH-7; 7.89 nM in the test on Huh-7; 30.9 nM with HGC-27. The compound also displayed an IC50 with DMS114 of 2.94 nM.
For the compound `COCCOc1cc2nccc(Oc3ccc(NC(=O)Nc4cc(C(C)(C)C)n[nH]4)c(Cl)c3)c2cc1NC(C)=O` [Compound 66, N-[4-{4-[3-(5-tert-butyl-2H-pyrazol-3-yl)-ureido]-3-chloro-phenoxy}-7-(2-methoxy-ethoxy)-quinolin-6-yl]-acetamide], the IC50 in the test with MFM-223 was found to be 17.9 nM; in the test with KATO III (FGFR2 amp) it was 0.08 nM; in the test on SK-OV-3, 42.3 nM; with NCI-H460 it was 26.2 nM; in the test on Karpas 299 (NPM-ALK), 44.1 nM; in the test with HCC1954, 37.5 nM. In addition, the IC50 came out at 1.13 nM in the test with Kasumi-1 (KIT N822K); 28.2 nM in the test on SW48; 25.6 nM in the test on RT112/84; 12.9 nM with JHH-7; 1.98 nM in the test on Huh-7; 39.9 nM in the test on HGC-27. This compound also gave an IC50 in the test with DMS114 of 3.92 nM.
As for `COc1cc2nccc(Oc3ccc(NC(=O)Nc4cc(C(C)(C)C)nn4C)c(Cl)c3Cl)c2cc1C(N)=O` [Compound 38, 4-{4-[3-(5-tert-butyl-2-methyl-2H-pyrazol-3-yl)-ureido]-2,3-dichloro-phenoxy}-7-methoxyquinolin-6-carboxamide], the IC50 amounted to 14.9 nM in the test with MFM-223; 0.18 nM in the test with KATO III (FGFR2 amp); 32.3 nM with SK-OV-3; 25.7 nM with NCI-H460; 11.7 nM in the test on Karpas 299 (NPM-ALK); 11.8 nM in the test on HCC1954. Moreover, the IC50 came out at 1.32 nM in the test with Kasumi-1 (KIT N822K); 13.6 nM in the test on SW48; 10.1 nM in the test with RT112/84; 9.89 nM in the test on JHH-7; 3.99 nM in the test on Huh-7; 19.2 nM in the test on HGC-27. Moreover, in the test with DMS114, the 50% inhibitory concentration (IC50) is 4.1 nM.
